Test results taken from patent US8388931B2, “99m Tc-labeled triphenylphosphonium derivative contrasting agents and molecular probes for early detection and imaging of breast tumors” (priority 2008, dated 2013).

Key:
[1] = Comparative study: myocardial and hepatic uptake of 99mTc-MIBI versus 99mTc-Mito10-MAG3; type: in vivo, rats; details: rats
Method: (§1) ^99mTc-MIBI of clinical formulation was purchased from Bristol Myers Squibb. […] Dynamic images were acquired in identical fashion following 99mTc-MIBI injection.
In a comparative study, the myocardial uptake of ^99mTc-MIBI peaked at 2.70±0.4% ID/g within minutes after injection, and remained above 2.41±0.3% ID/g for at least 90 min. Comparatively, the myocardial uptake level of ^99mTc-Mito10-MAG 3 is 10, 40, and 120 fold lower than the uptake level of ^99mTc-MIBI at 3, 10 and 30 min after injection. The hepatic uptake of ^99mTc-MIBI was at 0.37±0.14% ID/g at 30 min after injection.

[2] = Radio-stability in physiological buffer by radioHPLC; type: physicochemical
Method: Mito10-MAG3 was radiolabeled with ^99mTc, using a protocol previously reported with minor modifications. Specifically, an aliquot of Mito10-MAG3 (30 μg) was re-suspended in 450 μl of freshly prepared labeling solution containing 7.5 mg tartaric acid, 9.5 mg ammonium acetate, 10 μg stannous chloride, pH 8.3. After the addition of ^99mTc pertechnetate (3 mCi), the labeling mixture was incubated at 65° C. for one hour. For quality control purposes, the radiolabeled product was routinely analyzed by radioHPLC (4.6×250 mm C18 reversed phase column) at room temperature, with the following method.
Buffer A contained 10 mM phosphate buffer (pH 6.8) and buffer B contained 100% acetonitrile. A baseline of 90% A and 10% B was run for 10 min, followed by a linear gradient with the mobile phase reaching 10% A and 90% B at 40 min. To determine the radio-stability, the radiopharmaceutical was maintained in physiological buffer for up to 48 hours, and the radiochemical purity was examined by radioHPLC.

[3] = tested on: DMBA-induced breast carcinoma; experiment: In vivo gamma camera imaging of DMBA-induced breast carcinoma in rats; design: species or system rats (female Sprague Dawley)
Method: The animal protocol was approved by institutional IACUC review and followed NIH guidelines. The rat model of DMBA-induced breast carcinoma was used.
As an initial feasibility study, rats were induced with 65 mg/kg DMBA dissolved in sesame oil via a single oral gavage to the stomach. […] Static images were acquired on a GE XRT gamma camera using a high-resolution parallel-hole collimator, 512×512 matrix size, 22.5×22.5 cm field of view, 140±15 keV energy window, 100 k counts. Unexpectedly, apart from the established palpable carcinomas, additional small (millimeter size) tumors were discovered by this imaging technique in the same animals. This finding promoted a longitudinal study to investigate the early detection of neoplastic growth using ^99mTc-Mito10-MAG3.
Six 48-day-old female rats were injected with 65 mg/kg DMBA. At each week after DMBA induction, the rats were imaged using the following protocol. Each rat was anesthetized with 1.6% isoflurane in room air supplemented with oxygen. […] Dynamic images were continuously acquired at one frame per min for 90 min using the imaging parameters set forth hereinabove. The weekly imaging regiment was continued for all six rats until palpable tumors became detectable, which typically takes place between seven to nine weeks after the administration of DMBA. Due to the relatively short physical half-life of ^99mTc (6 hr), no residual signal, therefore, no cross-contamination is detectable from the previous injection the week before.
as §1
The female Sprague Dawley rats have six pairs of mammary glands, among which glands a and b are away from the hepatic/gastrointestinal region. (FIG. 9, Panel A). Since the typical biodistribution of a lipophilic radiopharmaceutical in the abdominal region precludes reliable imaging of breast tissues below the diaphragm, mammary glands shown in Panels C, D, E and F were excluded from the data analysis. This exclusion also was based on the fact that such spatial distribution of mammary glands is irrelevant to that of the human anatomy.
Imaging data analysis was carried out using an inbuilt software, by carefully drawing a region of interest (ROI) on the tumor site to determine the radioactivity counts in the ROI. […] Radioactivity counts were determined in each ROI. Tumor-to-normal and tumor-to-muscle ratios were calculated as the count ratio between the two ROIs.
The rats were sacrificed by CO2 asphyxiation and the number and location of the mammary tumors were recorded at necropsy. The tumors were dissected, with the diameter and weight measured and documented. […]

CC(=O)[S+]1CC(=O)[N]2CC(=O)[N]3CC(=O)[N](CC(=O)NCCCCCCCCCC[P+](c4ccccc4)(c4ccccc4)c4ccccc4)[99Tc]321=[O].[Br-] (centres unmarked) [^99mTc-Mito10-MAG3]
reduction of uptake in the myocardium compared to 99mTc-MIBI [1]: one to two orders of magnitude
time radioactivity bound to Mito10-MAG3 remained persistent after labeling ([2]; physiological solution, radioHPLC): at least 48 hours
change in radiochemical purity after radiolabeling ([2]; radioHPLC at 0, 24 and 48 hr after radiolabeling): no significant change in radiochemical purity
uptake in small breast tumors that escaped detection by palpation ([3]; 15 μg via tail vein, gamma camera): significant focal uptake
weight of small non-palpable tumor detected by imaging ([3]; feasibility experiment, 11 weeks after DMBA induction, at dissection): 18 mg
